The values below come from patent US20100008932A1, “USE OF SOLUBLE CD160 TO SUPPRESS IMMUNITY” (INSERM (Institut National de la Sante et de la Recherche …, priority 2006, published 2010).

Assay [1] has as its system CD160 cell surface expression on IL-15-activated PB-NK lymphocytes. The assay is described as follows: Inhibition of the GPI-anchored CD160 cleavage: flow cytometry of membrane-bound CD160 on IL-15-activated PB-NK cells. The conditions noted are these: 8-12 h after 72 h IL-15, PB-NK cells, anti-CD160 mAb BY55 flow cytometry. In kind it is cell-based, human. An excerpt: The antibodies used in this study were the following: anti-Flag M2 mAb (Sigma, St Quentin Fallavier, France), rabbit anti-GPI-phospholipase D (Caltag laboratories, Burlingame, Calif.), anti-CD56 mAb (Beckman-Coulter, Marseille, France), and anti-CD160 mAb (BY55 (IgM) and CL1-R2 (IgG1), produced locally). Irrelevant isotype-matched antibodies were used as negative controls. FITC- or PE-conjugated goat anti-mouse IgG or IgM (Beckman-Coulter), or coat anti-rabbit IgG (Caltag laboratories) were utilized as secondary reagents. Cells were phenotyped by indirect i munofluorescence. Briefly, the cells were incubated with the specific mAb for 30 min at 4° C., washed twice in PBS, and further incubated with the appropriated FITC- or PE-labeled secondary antibodies. After washing, cells were analyzed by flow cytometry on an EPICS XL apparatus (Beckman-Coulter). For intracellular staining, the cells were permeabilized in saponin buffer (PBS/0.1% BSA/0.1% saponin) (Sigma) prior to staining, and all subsequent steps were performed in saponin buffer, as described above.
The phospholipase inhibitors U73122, U73343 and 1,10 phenanthroline (1,10 PNT) were purchased from Sigma. 3×10^5/ml PB-NK cells were cultured for 72 h in RPMI 1640 supplemented with 10% heat-inactivated human serum, penicillin/streptomycin, L-glutamine and IL-15 (10 ng/ml; PeproTech, Levallois-Perret, France). […]
A general note: Flow cytometry measures light scatter and fluorescence of single cells or particles in a stream.

The test system of assay [2] is release of soluble CD160 by IL-15-stimulated PB-NK cells. Kind of assay: Anti-CD160 immunoprecipitation and immunoblotting of soluble CD160 in PB-NK cell culture supernatant. The class given is cell-based, human. The conditions noted are these: IL-15-stimulated PB-NK cells cultured in the presence of 1,10-PNT; CL1-R2 immunoprecipitation and Western blot. As to the method: Culture medium (10 ml) from transfected COS7 cells was incubated with 5 μg of anti-Flag M2 mAb for 1 h 30 at 4° C., and immune complexes were collected with 20 μl of Protein G-Sepharose beads. Alternatively, 2×10^7 control or IL-15-activated PB-NK lymphocytes were cultured for 24-48 h in 10 ml of RPMI 1640 medium without serum. Culture supernatants were collected and incubated with CL1-R2 mAb (10 μg per test) followed by protein G-Sepharose beads. After washes, the precipitated proteins were separated by SDS-8% PAGE. The proteins were then transferred onto a nitrocellulose membrane and subjected to Western blot analysis using the anti-CD160 (CL1-R2, 5 μg/ml) or anti-Flag M2 (5 μg/ml) mAb. HRP-conjugated goat anti-mouse antibodies (Jackson Immunoresearch, Westgrove, Pa.) were used as secondary antibodies, and the immunoreactive proteins were visualized using an ECL kit (Amersham Biosciences).
On the technique in general: In western blotting, separated proteins are transferred to a membrane and probed.

As to `COc1ccc2c(c1)CC[C@@H]1[C@@H]2CC[C@]2(C)[C@@H](NCCCCCCN3C(=O)C=CC3=O)CC[C@@H]12` [U73122], the “effect on IL-15-induced down-modulation of CD160 cell surface expression” value in assay [1] (U73122 2 μM) is “not affected”. For `O.c1cnc2c(c1)ccc1cccnc12` [1,10 PNT, 1,10-phenanthroline monohydrate], the “soluble CD160 protein band immunoprecipitated from culture supernatant” value in assay [2] is on record as “no protein band is immunoprecipitated”. Moreover, in assay [1] (1,10 PNT 10 μM), the “effect on IL-15-induced down-modulation of CD160 cell surface expression” value is on record as “partially impaired”.
